According to paper PMC3938571, “Modulation of Basophils' Degranulation and Allergy-Related Enzymes by Monomeric and Dimeric Naphthoquinones” (PLoS ONE, 2014):
“Also recorded” adds a separate entry of the source.

Key:
RBL-2H3 cells [1] = assay: IgE/antigen-induced RBL-2H3 basophils' degranulation (β-hexosaminidase release); type: cell-based, rat; details: for Effect on IgE/antigen-induced degranulation (in words): naphthazarin 0.1 µM, plumbagin 1 µM
Method: RBL-2H3 cells were seeded at 3.0×10^5 cells/mL in 24-wells plate (1 mL/well), and assayed after 24h at near-confluent stage (∼90%). Two different degranulation stimuli were used: calcium ionophore A23187 500 ng/mL (1 µM) and an immunologic stimulus (100 ng/mL IgE anti-DNP followed by 100 ng/mL DNP-BSA) that we refer to as IgE/antigen (Fig. 2). […] Thus, the ability of naphthoquinones to reduce β-hexosaminidase release was quantified for both stimuli, whereas effects upon histamine were only quantified with the A23187 stimulus, given the low histamine release and poor signal to noise achieved with IgE/antigen.
When the IgE/antigen was used as stimulus, cells were incubated during 16 h with 100 ng/ml IgE anti-DNP and with individual naphthoquinones diluted in culture medium. After washing twice with Dulbecco's phosphate buffered saline (DPBS), cells were treated for 1 h, at 37°C, with 100 ng/ml DNP-BSA and with individual naphthoquinones diluted in EBSS supplemented with 0.1% BSA (Fig. 2A). After treatments, supernatants were collected in order to quantify released β-hexosaminidase and released histamine, while cell viability assay was performed on adherent cells.
(§1) The release of β-hexosaminidase from stimulated-RBL-2H3 cells was measured as previously described. In a 96-wells plate, 50 µl of substrate solution [p-nitrophenyl N-acetyl-D-glucosamine 1.3 mg/ml in citrate buffer (pH 4.5)] were added to 30 µl of supernatant. The plate was incubated at 37°C, during 1 h.

RBL-2H3 cells [2] = assay: Calcium ionophore A23187-induced RBL-2H3 degranulation (β-hexosaminidase release); type: cell-based, rat; details: for Effect on A23187 (calcium ionophore)-induced degranulation (in words): naphthazarin 0.1 µM, plumbagin 1 µM, diospyrin 10 µM, others at maximal tested concentrations
Method: (§2) RBL-2H3 cells were seeded at 3.0×10^5 cells/mL in 24-wells plate (1 mL/well), and assayed after 24h at near-confluent stage (∼90%). Two different degranulation stimuli were used: calcium ionophore A23187 500 ng/mL (1 µM) and an immunologic stimulus (100 ng/mL IgE anti-DNP followed by 100 ng/mL DNP-BSA) that we refer to as IgE/antigen (Fig. 2). Both stimuli induced degranulation, which was quantified by β-hexosaminidase and histamine release. With IgE/antigen, β-hexosaminidase release (p-nitrophenolate absorbance) increased by 65.4±6.8% above basal (n = 16; P<0.001), whereas histamine increased from the basal value of 0.156±0.151 µM towards 0.521±0.186 µM (n = 10; P<0.05). With A23187, β-hexosaminidase release increased by 187±18.9% above basal (n = 12; P<0.001), whereas histamine increased towards 2.43±0.330 µM (n = 12; P<0.001). Thus, the ability of naphthoquinones to reduce β-hexosaminidase release was quantified for both stimuli, whereas effects upon histamine were only quantified with the A23187 stimulus, given the low histamine release and poor signal to noise achieved with IgE/antigen.
(§3) Before treatment with A23187, cells were incubated with individual naphthoquinones during 15 min, at 37°C. After that, A23187 1 µM was added and cells incubated for 30 min, at 37°C (Fig. 2B). Compounds were freshly diluted prior to cell exposure using EBSS supplemented with 0.1% BSA [21]. β-hexosaminidase and histamine release was quantified in supernatants, whereas the MTT cell viability assay was performed on adherent cells.
as §1, with “h. The reaction was stopped by the addition of 80 µl of NaOH 0.5 M and the reaction product, p-nitrophenolate, was measured spectrophotometrically at 405 nm, in a microplate reader (Multiskan ASCENT Thermo®).” for “h.”

RBL-2H3 cells [3] = assay: Histamine release in A23187-stimulated RBL-2H3 cells; type: cell-based, rat; details: 10 µM; A23187 1 µM stimulus
Method: as §2, with “With A23187, β-hexosaminidase release increased by 187±18.9% above basal (n = 12; P<0.001), whereas histamine increased towards 2.43±0.330 µM (n = 12; P<0.001).” left out
as §3, with “After that, A23187 1 µM was added and cells incubated for 30 min, at 37°C (Fig. 2B).” left out, “cells. […]” for “cells.”

[4] = system: hyaluronidase from bovine tests (type IV-S; EC 3.2.1.35); assay: Hyaluronidase inhibition, cell-free (Morgan-Elson); type: biochemical; details: for Hyaluronidase inhibition (%): maximal inhibition, mean±SEM
Method: The reaction product, N-acetyl-sugar, was quantified according Morgan-Elson colour reaction with minor modifications. The Morgan-Elson reaction was started by addition of 25 µl disodium tetraborate 0.8 M and subsequent heating in a boiling water bath during 3 min. After cooling, 750 µl p-dimethylaminobenzaldehyde (DMAB) was added and the reaction mixture was incubated at 37°C for 20 min. […] The measurement was made spectrophotometrically, at 560 nm, in a microplate reader (Multiskan ASCENT Thermo®), [24]. Sodium cromoglycate was used as a positive control for inhibition.

soybean lipoxidase = biological target: T1, soybean lipoxidase (Glycine max, UniProt P08170); assay: Soybean lipoxidase inhibition, cell-free; type: biochemical, Glicine max (L.) Merr.; details: mean±SEM; for IC50: cell-free assay
T1 construct: purchased Sigma-Aldrich (St. Louis, MO, USA) type V-S; host or cells: soybean (plant preparation)
T1 sequence (P08170 1-839): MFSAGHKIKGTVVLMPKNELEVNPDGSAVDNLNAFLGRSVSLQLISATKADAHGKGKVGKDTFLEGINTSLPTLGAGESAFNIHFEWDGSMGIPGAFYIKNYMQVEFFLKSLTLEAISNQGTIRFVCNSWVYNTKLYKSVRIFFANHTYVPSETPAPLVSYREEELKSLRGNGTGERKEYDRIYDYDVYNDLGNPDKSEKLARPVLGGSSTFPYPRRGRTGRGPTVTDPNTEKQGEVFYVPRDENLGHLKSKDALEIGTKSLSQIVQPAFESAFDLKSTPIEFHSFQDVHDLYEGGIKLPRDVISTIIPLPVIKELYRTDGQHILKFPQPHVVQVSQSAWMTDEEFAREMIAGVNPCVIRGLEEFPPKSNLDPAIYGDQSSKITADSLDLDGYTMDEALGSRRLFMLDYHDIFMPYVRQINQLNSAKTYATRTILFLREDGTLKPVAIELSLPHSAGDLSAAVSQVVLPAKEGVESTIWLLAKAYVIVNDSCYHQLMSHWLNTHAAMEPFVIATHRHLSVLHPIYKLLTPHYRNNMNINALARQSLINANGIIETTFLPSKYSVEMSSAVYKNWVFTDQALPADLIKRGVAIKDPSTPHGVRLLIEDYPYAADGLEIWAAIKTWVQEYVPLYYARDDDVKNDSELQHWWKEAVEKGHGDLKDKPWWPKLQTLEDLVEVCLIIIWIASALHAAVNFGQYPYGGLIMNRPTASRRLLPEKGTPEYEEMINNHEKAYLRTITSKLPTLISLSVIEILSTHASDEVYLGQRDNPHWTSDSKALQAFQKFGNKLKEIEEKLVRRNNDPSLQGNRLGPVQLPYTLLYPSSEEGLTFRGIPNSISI
Method: Lipoxidase catalyses the oxidation of linoleic acid to the conjugated diene, 13-hydroperoxy linoleic acid, which was measured spectrophotometrically at 234 nm on a UV/visible spectrophotometer (UNICAM Helios α). The blank was measured in a reaction mixture with 20 µl of individual naphthoquinones solution, 1 ml of phosphate buffer (pH 9) and 20 µl of soybean lipoxidase 500 U. After 5 min pre-incubation at room temperature, the reaction was started by addition of 50 µl of substrate (linoleic acid) at 2 mM in ethanol. The reaction time was 3 min.

[5] = system: leukotriene C4 production; assay: Leukotriene C4 production in IgE/antigen-stimulated RBL-2H3 cells (EIA); type: cell-based, rat
RBL-2H3 cells [6] = type: cell-based; details: rat
Method: Cell viability was assessed by the cellular dehydrogenases' dependent reduction of MTT to formazan, which was quantified by the measurement of optical density at 550 nm using a microplate reader (Multiskan ASCENT Thermo®), as described before.

[7] = system: peripheral blood mononuclear cells (PBMC); set-up: method as in PMID 21134493; details: 5 µM; phytohemagglutinin-stimulated PBMC; cited from earlier work
[8] = system: prostaglandin H2 (PGH2) synthase; set-up: method as in PMID 2495300; details: via ROS production; read-out: IC50 for inhibition of prostaglandin H2 (PGH2) synthase; cited from earlier work
leukotriene production = system: leukotriene production; set-up: method as in PMID 20460770; details: by inhibiting 5-lipoxygenase translocation to the nuclear membrane; cited from earlier work
[9] = Rattus norvegicus, RBL-2H3, maximal inhibition, mean±SEM, read-out: Degranulation inhibition (%) IgE/antigen (decrease of β-hexosaminidase release)
[10] = Rattus norvegicus, RBL-2H3, maximal inhibition, mean±SEM, read-out: Degranulation inhibition (%) A23187 (decrease of β-hexosaminidase release)

Cc1cc(O)c2c(c1)C(=O)C(c1c(C)cc3c(c1O)C(=O)C=CC3=O)=CC2=O [Diospyrin, diospyrin]
inhibition at 1 µM (RBL-2H3 cells [1]; [9]): < 15% | inhibition at 10 µM (RBL-2H3 cells [2]; [10]): 56.8 ± 14.6% | Effect on A23187 (calcium ionophore)-induced degranulation (in words) (RBL-2H3 cells [2]): reduced degranulation | Decrease of histamine release (RBL-2H3 cells [3]): 51.4±12.8% | Hyaluronidase inhibition (%) ([4]; 20 µM): < 15 (20 µM) % | inhibition at 36.7 µM (soybean lipoxidase; 36.7 µM, maximal inhibition): 65.6 ± 6.24% | IC50 (soybean lipoxidase): 28.9 ± 2.53 µM | Effect on leukotriene (LT) C4 levels evoked by IgE/antigen (in words) ([5]; 1 µM): unaffected; also recorded: unable to reduce leukotrien C4

O=C1C=CC(=O)c2c(O)cccc21 [Juglone, juglone]
inhibition at 10 µM (RBL-2H3 cells [1]; Rattus norvegicus, RBL-2H3, 10 µM, maximal inhibition, mean±SEM, read-out: Degranulation inhibition (%) IgE/antigen (decrease of β-hexosaminidase release)): 39.2 ± 13.3% | inhibition at 10 µM (RBL-2H3 cells [2]; [10]): < 15% | Hyaluronidase inhibition (%) ([4]; 100 µM): < 15 (100 µM) % | inhibition at 183.5 µM (soybean lipoxidase; maximal inhibition): 53.1 ± 13.8%

CC1=CC(=O)c2c(O)cccc2C1=O [Plumbagin, plumbagin]
inhibition at 1 µM (RBL-2H3 cells [1]; [9]): < 15% | Effect on IgE/antigen-induced degranulation (in words) (RBL-2H3 cells [1]): did not prevent degranulation | inhibition at 1 µM (RBL-2H3 cells [2]; [10]): < 15% | Effect on A23187 (calcium ionophore)-induced degranulation (in words) (RBL-2H3 cells [2]): did not prevent degranulation | Hyaluronidase inhibition (%) ([4]; 100 µM): < 15 (100 µM) % | inhibition at 183.5 µM (soybean lipoxidase; maximal inhibition): 49.8 ± 5.23% | IC50 (soybean lipoxidase): > 184 µM | Maximum non-toxic concentration (RBL-2H3 cells [6]): 1 µM | Effect on cytokines production (in words) [7]: inhibited cytokines production

O=c1c(O)c(-c2ccc(O)c(O)c2)oc2cc(O)cc(O)c12 [Quercetin, reference compound]
Concentration required to reduce β-hexosaminidase release (RBL-2H3 cells [2]; A23187 assay, 10-fold higher than in IgE/antigen assay): 100 µM

Cc1cc(O)c2c(c1)C(=O)C(c1c(C)cc3c(c1O)C(=O)C1OC1C3=O)=CC2=O (centres unmarked) [Diosquinone, diosquinone]
inhibition at 1 µM (RBL-2H3 cells [1]; [9]): 18.4 ± 8.07% | inhibition at 1 µM (RBL-2H3 cells [2]; [10]): < 15% | Hyaluronidase inhibition (%) ([4]; 100 µM): < 15 (100 µM) % | inhibition at 183.5 µM (soybean lipoxidase; maximal inhibition): 96.5 ± 0.92% | IC50 (soybean lipoxidase): 83.8 ± 9.33 µM | Effect on leukotriene (LT) C4 levels evoked by IgE/antigen (in words) ([5]; 1 µM): unaffected

O=C1C=CC(=O)c2c(O)ccc(O)c21 [Naphthazarin, naphthazarin]
inhibition at 0.1 µM (RBL-2H3 cells [1]; Rattus norvegicus, RBL-2H3, 0.1 µM, maximal inhibition, mean±SEM, read-out: Degranulation inhibition (%) IgE/antigen (decrease of β-hexosaminidase release)): 30.8 ± 3.82% | Effect on IgE/antigen-induced degranulation (in words) (RBL-2H3 cells [1]): decreased IgE/antigen-induced degranulation | inhibition at 0.1 µM (RBL-2H3 cells [2]; Rattus norvegicus, RBL-2H3, 0.1 µM, maximal inhibition, mean±SEM, read-out: Degranulation inhibition (%) A23187 (decrease of β-hexosaminidase release)): < 15% | Effect on A23187 (calcium ionophore)-induced degranulation (in words) (RBL-2H3 cells [2]): failed to reduce ionophore-induced degranulation | Hyaluronidase inhibition (%) ([4]; 100 µM): 16.9±2.45 (100 µM) % | inhibition at 183.5 µM (soybean lipoxidase; maximal inhibition): 54.4 ± 9.33% | IC50 (soybean lipoxidase): 142 ± 27.1 µM

CC1=CC(=O)c2ccccc2C1=O [Menadione, menadione]
inhibition at 5 µM (RBL-2H3 cells [1]; Rattus norvegicus, RBL-2H3, 5 µM, maximal inhibition, mean±SEM, read-out: Degranulation inhibition (%) IgE/antigen (decrease of β-hexosaminidase release)): < 15% | inhibition at 5 µM (RBL-2H3 cells [2]; Rattus norvegicus, RBL-2H3, 5 µM, maximal inhibition, mean±SEM, read-out: Degranulation inhibition (%) A23187 (decrease of β-hexosaminidase release)): < 15% | Hyaluronidase inhibition (%) ([4]; 100 µM): 23.8±6.06 (100 µM) % | inhibition at 183.5 µM (soybean lipoxidase; maximal inhibition): 83.4 ± 6.8% | IC50 (soybean lipoxidase): 128 ± 9.38 µM | Effect on leukotriene (LT) C4 levels evoked by IgE/antigen (in words) ([5]; 5 nM (lowest concentration tested)): strongly decreased LTC4 levels | Effect on leukotriene (LT) C4 levels evoked by IgE/antigen (in words) ([5]; 5 µM): full inhibition | Effect on leukotriene (LT) C4 levels evoked by IgE/antigen (in words) ([5]; 5 µM, listed as menadione): completely abrogated | IC50 ([5]; Rattus norvegicus, RBL-2H3, IgE/antigen evoked release, read-out: IC50 for decrease of LTC4 levels): 0.34 ± 0.018 µM | IC50 [8]: 5 µM | Concentrations reported to reduce leukotriene production (leukotriene production): 50 to 200 µM

O=C(O)c1cc(=O)c2c(OCC(O)COc3cccc4oc(C(=O)O)cc(=O)c34)cccc2o1 [sodium cromoglycate, Sodium cromoglycate, reference compound]
Concentration required for complete hyaluronidase inhibition ([4]; positive control): 10 mM
